PubChem BioAssay (NCI)
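Following 48 hours of exposure in 96-well plates, responses at five concentrations were used to interpolate endpoints linearly. TGI: total growth inhibition.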

How the values were obtained:
Test in all cases: inhibition of tumour cell growth, NCI panel, 48 h
[1] = system: 786-0 renal
[2] = system: A549 NSCLC
[3] = system: ACHN renal
[4] = system: BT-549 breast
[5] = system: CAKI-1 renal
[6] = system: CCRF-CEM leukemia
[7] = system: COLO 205 colon
[8] = system: DU-145 prostate
[9] = system: EKVX NSCLC
[10] = system: HCC-2998 colon
[11] = system: HCT-116 colon
[12] = system: HCT-15 colon
[13] = system: HL-60(TB) leukemia
[14] = system: HOP-62 NSCLC
[15] = system: HOP-92 NSCLC
[16] = system: HS 578T breast
[17] = system: HT29 colon
[18] = system: IGROV1 ovarian
[19] = system: K-562 leukemia
[20] = system: KM12 colon
[21] = system: M14 melanoma
[22] = system: MALME-3M melanoma
[23] = system: MCF7 breast
[24] = system: MDA-MB-231 breast
[25] = system: MDA-MB-435
[26] = system: MDA-N
[27] = system: MOLT-4 leukemia
[28] = system: NCI-H226 lung
[29] = system: NCI-H23 lung
[30] = system: NCI-H460 lung
[31] = system: NCI-H522 lung
[32] = system: NCI/ADR-RES ovarian
[33] = system: OVCAR-3 ovarian
[34] = system: OVCAR-4 ovarian
[35] = system: OVCAR-5 ovarian
[36] = system: OVCAR-8 ovarian
[37] = system: PC-3 prostate
[38] = system: RPMI-8226 leukemia
[39] = system: RXF 393 renal
[40] = system: SF-268 CNS
[41] = system: SF-295 CNS
[42] = system: SF-539 CNS
[43] = system: SK-MEL-2 melanoma
[44] = system: SK-MEL-28 melanoma
[45] = system: SK-MEL-5 melanoma
[46] = system: SK-OV-3 ovarian
[47] = system: SN12C renal
[48] = system: SNB-19 CNS
[49] = system: SNB-75 CNS
[50] = system: SR leukemia
[51] = system: T-47D breast
[52] = system: TK-10 renal
[53] = system: U251 CNS
[54] = system: UACC-257 melanoma
[55] = system: UACC-62 melanoma
[56] = system: UO-31 renal
[57] = system: SW-620 colon
[58] = system: LOX IMVI melanoma

CC(C)(O)C1CC[C@]2(C)CC[C@]3(C)[C@H](CC[C@@H]4[C@@]5(C)CC[C@H](O)C(C)(C)[C@@H]5CC[C@]43C)[C@@H]12 (some centres undefined)
TGI [1]: 78.1 µM
TGI [2]: > 100 µM
TGI [3]: 71.3 µM
TGI [4]: 60.9 µM
TGI [5]: 45.6 µM
TGI [6]: > 100 µM
TGI [7]: 92.2 µM
TGI [8]: 57.9 µM
TGI [9]: 44.5 µM
TGI [10]: 51.9 µM
TGI [11]: 59.4 µM
TGI [12]: > 100 µM
TGI [13]: > 100 µM
TGI [14]: 84.3 µM
TGI [15]: 44.1 µM
TGI [16]: 68.1 µM
TGI [17]: > 100 µM
TGI [18]: 85.8 µM
TGI [19]: > 100 µM
TGI [20]: 89.3 µM
TGI [21]: 95.4 µM
TGI [22]: 57.7 µM
TGI [23]: > 100 µM
TGI [24]: > 100 µM
TGI [25]: > 100 µM
TGI [26]: > 100 µM
TGI [27]: > 100 µM
TGI [28]: > 100 µM
TGI [29]: > 100 µM
TGI [30]: > 100 µM
TGI [31]: 73.2 µM
TGI [32]: 82.4 µM
TGI [33]: 50.7 µM
TGI [34]: 78.3 µM
TGI [35]: 75.9 µM
TGI [36]: > 100 µM
TGI [37]: > 100 µM
TGI [38]: > 100 µM
TGI [39]: > 100 µM
TGI [40]: > 100 µM
TGI [41]: 57.6 µM
TGI [42]: 55.4 µM
TGI [43]: 62.5 µM
TGI [44]: 67.7 µM
TGI [45]: > 100 µM
TGI [46]: 49.3 µM
TGI [47]: > 100 µM
TGI [48]: > 100 µM
TGI [49]: 45.7 µM
TGI [50]: > 100 µM
TGI [51]: 66.2 µM
TGI [52]: 53.3 µM
TGI [53]: > 100 µM
TGI [54]: 50.2 µM
TGI [55]: > 100 µM
TGI [56]: > 100 µM

CN1CCCN(C)CCCN(C)CCCN(C)CCC1
TGI [1]: > 100 µM
TGI [2]: > 100 µM
TGI [3]: > 100 µM
TGI [4]: > 100 µM
TGI [5]: > 100 µM
TGI [6]: > 100 µM
TGI [7]: > 100 µM
TGI [8]: > 100 µM
TGI [9]: > 100 µM
TGI [10]: > 100 µM
TGI [11]: > 100 µM
TGI [12]: > 100 µM
TGI [14]: > 100 µM
TGI [16]: > 100 µM
TGI [17]: > 100 µM
TGI [18]: > 100 µM
TGI [19]: > 100 µM
TGI [20]: > 100 µM
TGI [21]: > 100 µM
TGI [22]: > 100 µM
TGI [23]: > 100 µM
TGI [24]: > 100 µM
TGI [25]: > 100 µM
TGI [26]: > 100 µM
TGI [27]: > 100 µM
TGI [28]: > 100 µM
TGI [29]: > 100 µM
TGI [31]: > 100 µM
TGI [32]: > 100 µM
TGI [33]: > 100 µM
TGI [34]: > 100 µM
TGI [35]: > 100 µM
TGI [36]: > 100 µM
TGI [37]: > 100 µM
TGI [38]: > 100 µM
TGI [39]: > 100 µM
TGI [40]: > 100 µM
TGI [41]: > 100 µM
TGI [43]: > 100 µM
TGI [44]: > 100 µM
TGI [45]: > 100 µM
TGI [46]: > 100 µM
TGI [48]: > 100 µM
TGI [50]: > 100 µM
TGI [57]: > 100 µM
TGI [51]: > 100 µM
TGI [52]: > 100 µM
TGI [53]: > 100 µM
TGI [54]: > 100 µM
TGI [55]: > 100 µM
TGI [56]: > 100 µM

c1ccc2[nH]c(C3CCCCO3)nc2c1 (centres undefined)
TGI [1]: > 100 µM
TGI [2]: > 100 µM
TGI [3]: > 100 µM
TGI [4]: > 100 µM
TGI [5]: > 100 µM
TGI [6]: > 100 µM
TGI [7]: > 100 µM
TGI [8]: > 100 µM
TGI [9]: > 100 µM
TGI [10]: > 100 µM
TGI [11]: > 100 µM
TGI [12]: > 100 µM
TGI [13]: > 100 µM
TGI [14]: > 100 µM
TGI [15]: > 100 µM
TGI [16]: > 100 µM
TGI [17]: > 100 µM
TGI [18]: > 100 µM
TGI [19]: > 100 µM
TGI [20]: > 100 µM
TGI [58]: > 100 µM
TGI [21]: > 100 µM
TGI [22]: > 100 µM
TGI [23]: > 100 µM
TGI [24]: > 100 µM
TGI [25]: > 100 µM
TGI [26]: > 100 µM
TGI [27]: > 100 µM
TGI [28]: > 100 µM
TGI [29]: > 100 µM
TGI [31]: > 100 µM
TGI [32]: > 100 µM
TGI [33]: > 100 µM
TGI [34]: > 100 µM
TGI [35]: > 100 µM
TGI [36]: > 100 µM
TGI [37]: > 100 µM
TGI [38]: > 100 µM
TGI [39]: > 100 µM
TGI [40]: > 100 µM
TGI [41]: > 100 µM
TGI [42]: > 100 µM
TGI [43]: > 100 µM
TGI [44]: > 100 µM
TGI [45]: > 100 µM
TGI [46]: > 100 µM
TGI [47]: > 100 µM
TGI [48]: > 100 µM
TGI [49]: > 100 µM
TGI [50]: > 100 µM
TGI [57]: > 100 µM
TGI [51]: > 100 µM
TGI [52]: > 100 µM
TGI [53]: > 100 µM
TGI [54]: > 100 µM
TGI [55]: > 100 µM
TGI [56]: > 100 µM
